Values of other authors in EP1964566A1, “PREPARATION WITH IMPROVED BIOABSORBABILITY OF SAPROPTERIN HYDROCHLORIDE” (Asubio Pharma Co., Ltd., priority 2005, dated 2007).

Details: in vivo, po

bioavailability: 1-2%
Substance: sapropterin hydrochloride
